Reference: patent US4927855A, “Levorotatory isomer of benzhydrylsulfinyl derivatives” (priority 1986, dated 1990)

Experiments:
[1] = Activity and lethality of the metabolite CRL 40 467 in male mice; assay type: in vivo
[2] = Behavior in male mice (stimulant effects); assay type: in vivo; conditions: intraperitoneal
Experimental: (§1) The comparative tests which were undertaken with the levorotatory derivative according to the invention (Ex. 1; Code no.: CRL 40 982), the dextrorotatory derivative (CP1; Code no.: CRL 40 983) and the corresponding racemate (CP2; Code no.: CRL 40 476) have been summarized below. Unless indicated otherwise, the 3 products studied in these tests were administered intraperitoneally as a suspension in an aqueous solution of gum arabic, in a volume of 20 ml/kg to male mice and in a volume of 5 ml/kg to male rats.

[3] = Motor activity in mice (actimeter); assay type: in vivo, male mice; conditions: for motor activity: 128 mg/kg and to a lesser extent 64 mg/kg, intraperitoneal four hours before 30 min recording; for intensity of stimulant effect / hyperactivity relative to the other products / level and statistical significance of hyperactivity relative to CRL 40 476: intraperitoneal four hours before the test; for level and statistical significance of hyperactivity relative to CRL 40 476: especially at 128 mg/kg
Experimental: as §1
The mice (6 per dose, 18 control animals) receive CRL 40 476, CRL 40 982 or CRL 40 983 four hours before being placed in an actimeter, where their motility is recorded for 30 minutes.

Behavior in rats = assay type: in vivo, male rats; conditions: intraperitoneal; for mydriatic action in male rats: all the doses used; for behavior, reactivities and variations in the rectal temperature and pupil diameter: male rats, 64, 16, 4 and 1 mg/kg
Experimental: as §1
at a dose of 128 mg/kg, CRL 40 476 causes excitation with an increase in the fear ration for 2 h, exophthalmos for 1 h and mydriasis for 1 for 2 h;
at a dose of 32 mg/kg, CRL 40 476 causes excitation (transient, lasting 0.5 h) with an increase in the fear reaction for 1 h, exophthalmos for 0.5-1 h and mydriasis for 1-2 h;
at a dose of 8 mg/kg, CRL 40 476 causes exophthalmos for 0.5-1 h and mydriasis for 0.5 h;
at a dose of 2 mg/kg, CRL 40 476 induces transient mydriasis appearing 1 h after administration, whereas

[4] = Toxicity in male mice, intraperitoneal administration; assay type: in vivo
Experimental: as §1

[5] = Pharmacokinetic study on dogs (plasma AUC, metabolism to CRL 40 467); assay type: in vivo; conditions: for AUCo^+9h of CRL 40 476, comparison between products administered: dogs, oral, 30 mg/kg, plasma, 0-9 h, stereoisomers not distinguished; for conversion to inactive metabolite CRL 40 467: in the organism
Source text: to distinguish CRL 40 982 from the racemic and dextrorotatory compounds, a kinetic study of the metabolism was undertaken on dogs (group of four animals). In a randomized crossover procedure, each animal received the following at the rate of one oral administration per week: 2 administrations of CRL 40 476 (for assessment of the variations within individuals), 1 administration of CRL 40 982 and 1 administration of CRL 40 983. Following each of these administrations, the kinetics of the CRL 40 476 and CRL 40 467 present in the plasma were determined (without looking to see whether these two products were in the racemic, levorotatory and/or dextrorotatory form, because of the difficulties associated with determining the optical rotation of each of the optical isomers in a biological medium).
The dose administered for each of the test substances CRL 40 476, CRL 40 982 and CRL 40 983 was 30 mg/kg.
After administration of CRL 40 476, the said CRL 40 476 and its metabolite, CRL 40 467, are found in the plasma.
After the administration of CRL 40 982, the following are found in the plasma: the said CRL 40 982, which will be characterized and determined as being CRL 40 476 by way of convenience, in view of what has been said above, and a metabolite which will be characterized and determined as being CRL 40 467.
Likewise, after administration of CRL 40 983, the 2 corresponding products in the plasma will be characterized and determined as being CRL 40 476 and CRL 40 467.
The curves of the plasma concentrations of the said CRL 40 476 and CRL 40 467 as a function of time are plotted from time […] to time T=+9 h after administration of the CRL 40 476, CRL 40 982 and CRL 40 983. The areas under the curves (AUCo^+9h) are then calculated.

Solubility of CRL 40 982 = conditions: alcohols, acetone, water, ether
[6] = Immunostimulant effect in vitro
Human clinical trials = assay type: in vivo
[7] = male mice, intraperitoneal, 1024, 512, 256, 128 and 64 mg/kg
[8] = human, once or twice a day, tablets or gelatin capsules of 50 to 100 mg

Row | Structure (SMILES) | stimulant effects in male mice [2] | motor activity [3] | intensity of stimulant effect / hyperactivity relative to the other products [3] | stimulant effects in male rats (Behavior in rats; male rats) | mydriatic action in male rats (Behavior in rats; male rats) | LDO (maximum non-lethal dose) [4] | AUCo^+9h of CRL 40 476, comparison between products administered [5] | conversion to inactive metabolite CRL 40 467 [5] | level and statistical significance of hyperactivity relative to CRL 40 476 [3] | behavior, reactivities and variations in the rectal temperature and pupil diameter (Behavior in rats) | further results
1 | O=C(O)C[S+]([O-])C(c1ccccc1)c1ccccc1 (racemic) [CRL 40 467, (±)-benzhydrylsulfinylacetic acid] |  |  |  |  |  |  |  |  |  |  | activity of metabolite ([1]; male mice, intraperitoneal, 64-1024 mg/kg): inactive; death of animals treated [1, 7]: does not cause the death of any of the animals treated; duration of brief sedation [1, 7]: 50 to 60 min; psychotropic activity ([1]; neuropsychopharmacological study): did not reveal any psychotropic activity
2 | NC(=O)C[S+]([O-])C(c1ccccc1)c1ccccc1 (racemic) [CRL 40 476, (±)-benzhydrylsulfinylacetamide] | have stimulant effects | increase in the motor activity | less than that obtained with either CRL 40 982 or CRL 40 983 | is a stimulant | has a mydriatic action at all the doses used | greater than or equal to 512 mg/kg | not statistically different | partially converted to (±)-benzhydrylsulfinylacetic acid |  |  | transient mydriasis, time of appearance after administration (Behavior in rats; male rats, 2 mg/kg): 1 h; exophthalmos, duration (Behavior in rats; male rats, 8 mg/kg): 0.5 to 1 h; mydriasis, duration (Behavior in rats; male rats, 8 mg/kg): 0.5 h; excitation (transient), duration (Behavior in rats; male rats, 32 mg/kg): 0.5 h; exophthalmos, duration (Behavior in rats; male rats, 32 mg/kg): 0.5 to 1 h; increase in the fear reaction, duration (Behavior in rats; male rats, 32 mg/kg): 1 h; mydriasis, duration (Behavior in rats; male rats, 32 mg/kg): 1 to 2 h; excitation with increase in the fear reaction, duration (Behavior in rats; male rats, 128 mg/kg): 2 h; exophthalmos, duration (Behavior in rats; male rats, 128 mg/kg): 1 h
3 | NC(=O)C[S+]([O-])C(c1ccccc1)c1ccccc1 (single isomer, unassigned; (+)) [CRL 40 983, (+)-benzhydrylsulfinylacetamide] | have stimulant effects | increase in the motor activity |  | do not have stimulant effects | devoid of this mydriatic action | greater than or equal to 512 mg/kg | not statistically different |  | greater than those due to CRL 40 476 | substantially comparable to those of the control group | conversion to inactive metabolite CRL 40 467 ([5]; listed as dextrorotatory derivative): a very high proportion
4 | NC(=O)C[S+]([O-])C(c1ccccc1)c1ccccc1 (single isomer, unassigned; (-)) [CRL 40 982, (-)-benzhydrylsulfinylacetamide] | have stimulant effects | increase in the motor activity | stimulant effect equal in intensity to that observed with CRL 40 983 | do not have stimulant effects | devoid of this mydriatic action |  | approximately twice | only a small proportion of this product is converted to inactive CRL 40 467 | greater than those due to CRL 40 476 | substantially comparable to those of the control group | solubility (Solubility of CRL 40 982): soluble in alcohols and acetone and insoluble in water and ether; LD30 [4]: about 512 mg/kg; relative toxicity [4]: more toxic than CRL 40 983 (CP1) and CRL 40 476 (CP2); bioavailability ([5]; relative to racemic CRL 40 476 and dextrorotatory CRL 40 983): better bioavailability than the racemic compound CRL 40 476 and the dextrorotatory compound CRL 40 983; immunostimulant effect [6]: immunostimulant effect was also observed; long-term clinical action (Human clinical trials; human, long term): arousing substance useful for hypersomnia; improvement in Alzheimer's disease (Human clinical trials; [8]): improvement of the symptoms of dementia, memory disorders, aphasia and ideomotor apraxia; stimulant neuropsychopharmacological profile (Human clinical trials; [8]): different stimulant neuropsychopharmacological profile from that of the amphetamines and tricyclic antidepressants; activity towards symptoms of dementia and loss of memory (Human clinical trials; human, short and long term, especially in the elderly): particularly active towards the symptoms of dementia and loss of memory; short-term clinical action (Human clinical trials; human, short term): purely hypnogenic, antiarousing substance; half-life (Human clinical trials; in vivo, human clinical trials, read-out: elimination half-life (converted)): ~10 h
